Measurements as given in PubChem BioAssay (NCI).
Several values for one entry are separate records, joined by “and”; a condition that tells them apart may be missing. Equal entries are not always repeated.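 Following 48 hours of exposure in 96-well plates, responses at five concentrations were used to interpolate endpoints linearly. The concentration for 50% growth inhibition is given as GI50. Definition used: TGI = concentration required for complete inhibition of growth.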

What was measured:
Test in all cases: NCI tumour cell line growth inhibition, 48 h
[1] = tested on: SF-539 CNS
[2] = tested on: LOX IMVI melanoma
[3] = tested on: 786-0 renal
[4] = tested on: OVCAR-5 ovarian
[5] = tested on: NCI-H226 lung
[6] = tested on: RPMI-8226 leukemia
[7] = tested on: EKVX NSCLC
[8] = tested on: NCI-H522 lung
[9] = tested on: SNB-19 CNS
[10] = tested on: NCI-H460 lung

## CS(=O)(=O)Nc1ccc2c(c1)oc(=O)c1ccccc12
[1]
  TGI: > 100 µM
[2]
  TGI: > 100 µM
[3]
  TGI: > 100 µM
[4]
  TGI: > 100 µM
[5]
  TGI: > 100 µM
[6]
  TGI: > 100 µM
[7]
  TGI: > 100 µM
[8]
  TGI: > 100 µM
[9]
  TGI: > 100 µM
[10]
  TGI: > 100 µM

## O=C1/C(=C/c2ccc(Br)cc2)COc2ccc(O)c(O)c21
[1]
  GI50: 0.436 µM
  TGI: 1.19 µM
[2]
  GI50: 0.261 µM
  TGI: 0.807 µM
[3]
  GI50: 0.678 µM
  TGI: 2.57 µM
[4]
  GI50: 1.5 µM
  TGI: 3.04 µM
[5]
  GI50: 2.01 µM
  TGI: 5.52 µM
[6]
  GI50: 0.221 µM
  TGI: 1.02 µM
[7]
  GI50: 1.45 µM
  TGI: 3.14 µM
[8]
  GI50: 0.158 µM
  TGI: 0.348 µM
[9]
  GI50: 1.38 µM
  TGI: 3.05 µM
[10]
  GI50: 1.68 µM
  TGI: 4.06 µM

## O=C(Nc1ccc(Cl)cc1F)c1ccccc1O
[1]
  GI50: 2.94 µM
  TGI: 18.5 µM
[2]
  GI50: 2.95 µM
  TGI: 10.4 µM
[3]
  GI50: 3.44 µM
  TGI: > 100 µM
[4]
  GI50: 3.04 µM
  TGI: > 100 µM
[5]
  GI50: 2.23 µM
  TGI: 8.85 µM
[6]
  GI50: 1.97 µM
  TGI: 7.32 µM
[7]
  GI50: 1.96 µM
  TGI: 12.5 µM
[8]
  GI50: 2.45 µM
  TGI: 30 µM
[9]
  GI50: 3.23 µM
  TGI: > 100 µM
[10]
  GI50: 3.21 µM
  TGI: 19.7 µM

## COC(=O)C(=Cc1cc(OC)ccc1OC)C(=O)OC
[1]
  TGI: 65.2 µM
[2]
  TGI: 50.1 µM
[3]
  TGI: 53.5 µM
[4]
  TGI: 61.5 µM
[5]
  TGI: > 100 µM
[6]
  TGI: 92.2 µM
[7]
  TGI: 72.2 µM
[8]
  TGI: 34.4 µM
[9]
  TGI: > 100 µM
[10]
  TGI: 91.6 µM

## CC(C)N(C(=O)C12C3C4C5(C#N)C3C1(C#N)C5C42I)C(C)C (centres undefined)
[1]
  TGI: > 100 µM
[2]
  TGI: > 78.8 µM
[3]
  TGI: > 100 µM
[4]
  TGI: > 100 µM
[5]
  TGI: > 100 µM
[6]
  TGI: > 66.6 µM
[7]
  TGI: > 100 µM
[8]
  TGI: > 100 µM
[9]
  TGI: > 100 µM
[10]
  TGI: > 100 µM

## CCN(CC)CCC(CNc1ccnc2cc(Cl)ccc12)c1ccc(OC)cc1 (centres undefined)
[1]
  GI50: 1.56 µM and 1.7 µM
  TGI: 3.17 µM and 3.6 µM
[2]
  GI50: 1.88 µM and 1.6 µM
  TGI: 4.79 µM and 4.15 µM
[3]
  GI50: 11.9 µM and 3.46 µM
  TGI: 25.8 µM and 11.8 µM
[4]
  GI50: 11.6 µM and 5.65 µM
  TGI: 32.2 µM and 38.6 µM
[5]
  GI50: 4.14 µM and 4.92 µM
  TGI: 17.3 µM and 28.4 µM
[6]
  GI50: 7.14 µM and 2.12 µM
  TGI: 35.5 µM and 8.15 µM
[7]
  GI50: 6.44 µM and 12.7 µM
  TGI: 57.7 µM and > 100 µM
[8]
  GI50: 3.29 µM and 2.16 µM
  TGI: 13.1 µM and 8.47 µM
[9]
  GI50: 10.3 µM and 11 µM
  TGI: 29 µM and 29.9 µM
[10]
  GI50: 11.1 µM and 4.91 µM
  TGI: 25.6 µM and 24.7 µM

## O=C(Nc1nc2ccc(C(F)(F)F)cc2s1)c1cc(Cl)ccc1O
[1]
  GI50: 1.49 µM
  TGI: > 100 µM
[2]
  GI50: 1.33 µM
  TGI: 15.8 µM
[3]
  GI50: 2.14 µM
  TGI: 30.6 µM
[4]
  GI50: 3.67 µM
  TGI: > 100 µM
[5]
  GI50: 1.23 µM
  TGI: 11.4 µM
[6]
  GI50: 0.276 µM
  TGI: 2 µM
[7]
  GI50: 0.37 µM
  TGI: 39 µM
[8]
  GI50: 0.278 µM
  TGI: 2.08 µM
[9]
  GI50: 0.629 µM
  TGI: > 100 µM
[10]
  GI50: 0.414 µM
  TGI: > 100 µM

## N#Cc1c(NN)n(C2OC(CO)C(O)C2O)c2ncnc(N)c12 (centres undefined)
[1]
  GI50: 0.337 µM
  TGI: 1.48 µM
[2]
  GI50: 0.0513 µM
  TGI: 0.328 µM
[3]
  GI50: 0.228 µM
  TGI: 4.77 µM
[4]
  GI50: 0.311 µM
  TGI: 14.4 µM
[5]
  GI50: 0.496 µM
  TGI: 2.91 µM
[6]
  GI50: 0.105 µM
  TGI: 0.614 µM
[7]
  GI50: 0.209 µM
[8]
  GI50: 0.198 µM
  TGI: 0.469 µM
[9]
  GI50: 0.395 µM
  TGI: > 29.5 µM
[10]
  GI50: 0.032 µM
  TGI: 0.412 µM

## O=C(CNc1ccc(Cl)cc1)Nc1ccc(-c2nc3ccccc3s2)cc1
[1]
  GI50: 4.93 µM
  TGI: 9.79 µM
[2]
  GI50: 1.44 µM
  TGI: 2.95 µM
[3]
  GI50: 1.9 µM
  TGI: 4.03 µM
[4]
  GI50: 5.97 µM
  TGI: 13.3 µM
[5]
  GI50: 2.94 µM
  TGI: 11 µM
[6]
  GI50: 2.82 µM
  TGI: 16 µM
[7]
  GI50: 8.02 µM
  TGI: 24.5 µM
[8]
  GI50: 1.53 µM
  TGI: 3.67 µM
[9]
  GI50: 6.03 µM
  TGI: 16.6 µM
[10]
  GI50: 3.62 µM
  TGI: 12.7 µM

## CCCCC(C(=O)C(=O)NC1C2CC3CC(C2)CC1C3)C(=O)C(C)C (centres undefined)
[1]
  TGI: > 100 µM
[2]
  TGI: > 100 µM
[3]
  TGI: > 100 µM
[4]
  TGI: > 100 µM
[5]
  TGI: > 100 µM
[6]
  TGI: > 100 µM
[7]
  TGI: > 100 µM
[8]
  TGI: > 100 µM
[9]
  TGI: > 100 µM
[10]
  TGI: > 100 µM

## COc1ccc(-n2cc(-c3cc(OC)c(OC)c(OC)c3)c(C(=O)C(F)(F)F)c2C)cc1
[1]
  GI50: > 100 µM
  TGI: > 100 µM
[2]
  GI50: 47.4 µM
  TGI: > 100 µM
[3]
  GI50: > 100 µM
  TGI: > 100 µM
[4]
  GI50: > 100 µM
  TGI: > 100 µM
[5]
  GI50: > 100 µM
  TGI: > 100 µM
[6]
  GI50: 4.53 µM
  TGI: > 100 µM
[7]
  GI50: 13.9 µM
  TGI: > 100 µM
[8]
  GI50: 20 µM
  TGI: > 100 µM
[9]
  GI50: > 100 µM
  TGI: > 100 µM
[10]
  GI50: 29.4 µM
  TGI: > 100 µM

## COc1ccc2c3c([nH]c2c1[N+](=O)[O-])C(C)=NCC3
[1]
  TGI: > 100 µM
[2]
  TGI: > 100 µM
[3]
  TGI: > 100 µM
[4]
  TGI: > 100 µM
[5]
  TGI: > 100 µM
[6]
  TGI: > 100 µM
[7]
  TGI: > 100 µM
[8]
  TGI: > 100 µM
[9]
  TGI: > 100 µM
[10]
  TGI: > 100 µM

## COc1cc(C2CC(c3cccc(Br)c3)=NN2C(C)=O)cc(OC)c1OC (centres undefined)
[1]
  GI50: 0.265 µM
  TGI: 2.62 µM
[2]
  GI50: 0.719 µM
  TGI: 57.3 µM
[3]
  GI50: 0.771 µM
  TGI: > 65.4 µM
[4]
  GI50: 2.93 µM
  TGI: > 100 µM
[5]
  GI50: 11.5 µM
  TGI: > 58.5 µM
[6]
  GI50: 0.181 µM
  TGI: 0.67 µM
[7]
  GI50: 1.48 µM
  TGI: > 100 µM
[8]
  GI50: 0.286 µM
  TGI: 4.47 µM
[9]
  GI50: 0.514 µM
  TGI: > 100 µM
[10]
  GI50: 0.344 µM
  TGI: 11.7 µM

## CCOC(=O)CCCn1c(SC)nc2[nH]cc(-c3ccccc3)c2c1=O
[1]
  GI50: 18.4 µM
  TGI: 46.1 µM
[2]
  GI50: 11.3 µM
  TGI: 25.8 µM
[3]
  GI50: 6.81 µM
  TGI: 44.8 µM
[4]
  GI50: 37.5 µM
  TGI: 97.1 µM
[5]
  GI50: 14.1 µM
  TGI: 45.1 µM
[6]
  GI50: 14.6 µM
  TGI: 36.3 µM
[7]
  GI50: 24.8 µM
  TGI: 85.8 µM
[8]
  GI50: 15 µM
  TGI: 37.8 µM
[9]
  GI50: 21 µM
  TGI: > 100 µM
[10]
  GI50: 33.6 µM
  TGI: > 100 µM

## CC(CCC=O)CCOCc1ccccc1 (centres undefined)
[1]
  TGI: > 100 µM
[2]
  TGI: > 91.2 µM
[3]
  TGI: > 100 µM
[4]
  TGI: > 100 µM
[5]
  TGI: > 100 µM
[6]
  TGI: > 100 µM
[7]
  TGI: > 100 µM
[8]
  TGI: > 100 µM
[9]
  TGI: > 100 µM
[10]
  TGI: > 100 µM
